Patent US10273235B2, “Compositions and methods for inhibiting β-lactamase” (LegoChem Biosciences, Inc., priority 2015, dated 2019)
Counter-ions that a name gives are not always drawn.

Columns and labels:
[1] = tested on: K. pneumoniae NDM-506; experiment: BLI potentiation MIC, K. pneumoniae NDM-506; assay type: cell-based; conditions: BLI fixed 4 ug/ml; incubation 19 h
Method: (§1) MIC90 (μg/mL) is the lowest concentration of an antibiotic that will inhibit the visible growth of 90% of microorganisms after incubation as compared with a control group to which the antibiotic is not treated.
(§2) MIC values were measured by the broth microdilution method developed by the Clinical and Laboratory Standards Institute (CLSI) (see CLSI M07-A9, Methods for Dilution Antimicrobial Susceptibility Test for Bacteria that Grow Aerobically; Approved Standard-Ninth Edition (2012): CLSI, Villanova, Pa.). The in vitro antibacterial activity was measured with respect to the following 9 clinical isolates: P. aeruginosa (3 strains); K. pneumoniae (6 strains). The in vitro antibacterial activity of selected compounds was measured with respect to the following 15 clinical isolates: K. pneumoniae (15 strains).

[2] = tested on: P. aeruginosa ATCC27853; experiment: BLI potentiation MIC (broth microdilution), P. aeruginosa ATCC27853 (PoxB, AmpC); assay type: cell-based; conditions: incubation 19 h; for MIC of Meropenem with BLI: BLI fixed 4 ug/ml
Method: as §1, §2

[3] = tested on: K. pneumoniae 4248; experiment: BLI potentiation MIC, K. pneumoniae 4248 (SHV-11, CTX-M-15, TEM-1, OXA-1); assay type: cell-based; conditions: BLI fixed 4 ug/ml; incubation 19 h
Method: as §1, §2

[4] = tested on: P. aeruginosa ARC3506; experiment: BLI potentiation MIC, P. aeruginosa ARC3506 (VEB-1, OXA-10, OprD−, AmpC); assay type: cell-based; conditions: BLI fixed 4 ug/ml; incubation 19 h
Method: as §1, §2

[5] = tested on: K. pneumoniae 3784; experiment: BLI potentiation MIC, K. pneumoniae 3784 (SHV-11, SHV-12, DHA-1); assay type: cell-based; conditions: incubation 19 h; for MIC of Meropenem with BLI: BLI fixed 4 ug/ml
Method: as §1, §2

[6] = tested on: P. aeruginosa ARC3514; experiment: BLI potentiation MIC, P. aeruginosa ARC3514 (KPC-2, OprD−, AmpC); assay type: cell-based; conditions: BLI fixed 4 ug/ml; incubation 19 h
Method: as §1, §2

[7] = Mouse pharmacokinetics; assay type: in vivo, ICR mouse; conditions: IV, 50 mg/kg, plasma; for AUC(0-inf) / Cmax / Tmax / clearance / half-life / Vd: ICR; for Vd: read-out: Vss
Method: The pharmacokinetics values were evaluated in a mouse model. The test compound (50 mg/kg) was injected into the tail vein of 8 week old ICR mouse, weighing approximately 26-30 g. […] Lab conditions were temperature of 22±3° C. and humidity of 50±20%.

[8] = tested on: K. pneumoniae 5576; experiment: BLI potentiation MIC, K. pneumoniae 5576 (SHV-11, CMY-2, DHA-1, TEM-1); assay type: cell-based; conditions: Klebsiella pneumoniae, 5576, 19 h, read-out: MIC of Ceftazidime alone, no BLI; incubation 19 h
Method: as §1, §2

[9] = tested on: K. pneumoniae ATCC700603; experiment: BLI potentiation MIC, K. pneumoniae ATCC700603 (SHV-3); assay type: cell-based; conditions: Klebsiella pneumoniae, ATCC700603, 19 h, read-out: MIC of Ceftazidime alone, no BLI; incubation 19 h
Method: as §1, §2

[10] = tested on: K. pneumoniae 4006; experiment: BLI potentiation MIC, K. pneumoniae 4006 (SHV-12, CTX-M-15, TEM-1, OXA-9); assay type: cell-based; conditions: Klebsiella pneumoniae, 4006, 19 h, read-out: MIC of Ceftazidime alone, no BLI; incubation 19 h
Method: as §1, §2

NC(=O)CN1CCC2(CC([C@@H]3CC[C@@H]4CN3C(=O)N4OS(=O)(=O)O)=NO2)C1 (stereo partly drawn) [Example 12, [(2S,5R)-2-[7-(2-amino-2-oxo-ethyl)-1-oxa-2,7-diazaspiro[4.4]non-2-en-3-yl]-7-oxo-1,6-diazabicyclo[3.2.1]octan-6-yl] hydrogen sulfate]
MIC of Meropenem with BLI [1]: >64 µg/mL | MIC of Meropenem with BLI [2]: 2 µg/mL | MIC of Meropenem with BLI [3]: 0.125 µg/mL | MIC of Meropenem with BLI [4]: 64 µg/mL | MIC of Meropenem with BLI [5]: 1 µg/mL | MIC of Meropenem with BLI [6]: >64 µg/mL

NCC1(CO)CC([C@@H]2CC[C@@H]3CN2C(=O)N3OS(=O)(=O)O)=NO1 (stereo partly drawn) [Example 13, [(2S,5R)-2-[5-(aminomethyl)-5-(hydroxymethyl)-4H-isoxazol-3-yl]-7-oxo-1,6-diazabicyclo[3.2.1]octan-6-yl] hydrogen sulfate]
MIC of Meropenem with BLI [1]: >64 µg/mL | MIC of Meropenem with BLI [2]: 2 µg/mL | MIC of Meropenem with BLI [3]: 0.0625 µg/mL | MIC of Meropenem with BLI [4]: 32 µg/mL | MIC of Meropenem with BLI [5]: 0.25 µg/mL | MIC of Meropenem with BLI [6]: >64 µg/mL

NCC1(C(N)=O)CC([C@@H]2CC[C@@H]3CN2C(=O)N3OS(=O)(=O)O)=NO1 (stereo partly drawn) [Example 14, [(2S,5R)-2-[5-(aminomethyl)-5-carbamoyl-4H-isoxazol-3-yl]-7-oxo-1,6-diazabicyclo[3.2.1]octan-6-yl] hydrogen sulfate]
MIC of Meropenem with BLI [1]: >64 µg/mL | MIC of Meropenem with BLI [2]: 2 µg/mL | MIC of Meropenem with BLI [3]: 0.0625 µg/mL | MIC of Meropenem with BLI [4]: 64 µg/mL | MIC of Meropenem with BLI [5]: 0.25 µg/mL | MIC of Meropenem with BLI [6]: >64 µg/mL

NCC1(CN)CC([C@@H]2CC[C@@H]3CN2C(=O)N3OS(=O)(=O)O)=NO1 [Example 5, [(2S,5R)-2-[5,5-bis(aminomethyl)-4H-isoxazol-3-yl]-7-oxo-1,6-diazabicyclo[3.2.1]octan-6-yl] hydrogen sulfate]
AUC(0-inf) [7]: 55300 ± 4160 ng·h/mL | Cmax [7]: 103 ± 9.93 µg/mL | Tmax [7]: 4.8 min | clearance [7]: 15.2 mL/min/kg | half-life [7]: 191 ± 93.6 min | Vd [7]: 2.23 ± 0.61 L/kg | AUCnorm [7]: 1.11 ± 0.08 kg·h/L | Cmax, norm [7]: 2.06 ± 0.20 kg/L

NCC1CC([C@@H]2CC[C@@H]3CN2C(=O)N3OS(=O)(=O)O)=NO1 (stereo partly drawn) [Example 2, [(2S,5R)-2-[5-(aminomethyl)-4,5-dihydroisoxazol-3-yl]-7-oxo-1,6-diazabicyclo[3.2.1]octan-6-yl] hydrogen sulfate]
AUC(0-inf) [7]: 34500 ± 3610 ng·h/mL | Cmax [7]: 74.4 ± 3.44 µg/mL | Tmax [7]: 4.8 min | clearance [7]: 24.3 mL/min/kg | half-life [7]: 88.2 ± 9.6 min | Vd [7]: 1.57 ± 0.12 L/kg | AUCnorm [7]: 0.69 ± 0.07 kg·h/L | Cmax, norm [7]: 1.49 ± 0.07 kg/L

CC(C)(O/N=C(\C(=O)N[C@@H]1C(=O)N2C(C(=O)[O-])=C(C[n+]3ccccc3)CS[C@H]12)c1csc(N)n1)C(=O)O [Ceftazidime]
MIC [8]: > 64 µg/mL | MIC [9]: 32 µg/mL | MIC [10]: > 64 µg/mL | MIC ([2]; Pseudomonas aeruginosa, ATCC27853, 19 h, read-out: MIC of Ceftazidime alone, no BLI): 2 µg/mL | MIC ([5]; Klebsiella pneumoniae, 3784, 19 h, read-out: MIC of Ceftazidime alone, no BLI): > 64 µg/mL
